Data: PubChem BioAssay (NCI)
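Values below derive from 48-hour exposures of cells grown in 96-well plates, with endpoints linearly interpolated between the two concentrations bracketing the appropriate inhibition level. GI50 = concentration required for 50% inhibition of growth. TGI is the concentration that stops growth completely.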

What was measured:
Test in all cases: DTP human tumour cell line panel, 48 h
MALME-3M melanoma = test system: MALME-3M melanoma
786-0 renal = test system: 786-0 renal
LOX IMVI melanoma = test system: LOX IMVI melanoma
SF-268 CNS = test system: SF-268 CNS
OVCAR-4 ovarian = test system: OVCAR-4 ovarian
NCI-H460 lung = test system: NCI-H460 lung
SF-539 CNS = test system: SF-539 CNS
BT-549 breast = test system: BT-549 breast
SW-620 colon = test system: SW-620 colon
EKVX NSCLC = test system: EKVX NSCLC
OVCAR-8 ovarian = test system: OVCAR-8 ovarian
SNB-75 CNS = test system: SNB-75 CNS
HCT-15 colon = test system: HCT-15 colon
UO-31 renal = test system: UO-31 renal
CCRF-CEM leukemia = test system: CCRF-CEM leukemia
HS 578T breast = test system: HS 578T breast
SN12C renal = test system: SN12C renal
SK-MEL-2 melanoma = test system: SK-MEL-2 melanoma
SF-295 CNS = test system: SF-295 CNS
HOP-92 NSCLC = test system: HOP-92 NSCLC
SNB-19 CNS = test system: SNB-19 CNS
SK-OV-3 ovarian = test system: SK-OV-3 ovarian
ACHN renal = test system: ACHN renal
IGROV1 ovarian = test system: IGROV1 ovarian
COLO 205 colon = test system: COLO 205 colon
M14 melanoma = test system: M14 melanoma
UACC-257 melanoma = test system: UACC-257 melanoma
HCT-116 colon = test system: HCT-116 colon
OVCAR-5 ovarian = test system: OVCAR-5 ovarian
HL-60(TB) leukemia = test system: HL-60(TB) leukemia
PC-3 prostate = test system: PC-3 prostate
A498 renal = test system: A498 renal
SR leukemia = test system: SR leukemia
TK-10 renal = test system: TK-10 renal
HCC-2998 colon = test system: HCC-2998 colon
HOP-62 NSCLC = test system: HOP-62 NSCLC
MDA-MB-231 breast = test system: MDA-MB-231 breast
MOLT-4 leukemia = test system: MOLT-4 leukemia
CAKI-1 renal = test system: CAKI-1 renal
NCI-H522 lung = test system: NCI-H522 lung
SK-MEL-28 melanoma = test system: SK-MEL-28 melanoma
NCI-H23 lung = test system: NCI-H23 lung
K-562 leukemia = test system: K-562 leukemia
RXF 393 renal = test system: RXF 393 renal
A549 NSCLC = test system: A549 NSCLC
UACC-62 melanoma = test system: UACC-62 melanoma
MDA-MB-435 = test system: MDA-MB-435
MCF7 breast = test system: MCF7 breast
DU-145 prostate = test system: DU-145 prostate
U251 CNS = test system: U251 CNS
RPMI-8226 leukemia = test system: RPMI-8226 leukemia
SK-MEL-5 melanoma = test system: SK-MEL-5 melanoma
KM12 colon = test system: KM12 colon
HT29 colon = test system: HT29 colon

Question: COc1cc2c(cc1OC)C(Sc1ccc(F)cc1)c1c(nc(N)c(C#N)c1N)O2 (configuration not stated) was tested. Which GI50 (MALME-3M melanoma) did it give?
Answer: 1.2 µM

Question: What about the TGI (MALME-3M melanoma) of the same compound?
Answer: 2.54 µM

Question: And the GI50 (786-0 renal)?
Answer: 1.09 µM

Question: And the TGI (786-0 renal)?
Answer: 2.32 µM

Question: And the GI50 (LOX IMVI melanoma)?
Answer: 0.325 µM

Question: What about the TGI (LOX IMVI melanoma) of the same compound?
Answer: 1.09 µM

Question: And the GI50 (SF-268 CNS)?
Answer: 1.39 µM

Question: What about the TGI (SF-268 CNS) of the same compound?
Answer: 2.9 µM

Question: What about the GI50 (OVCAR-4 ovarian) of the same compound?
Answer: 1.54 µM

Question: And the TGI (OVCAR-4 ovarian)?
Answer: 2.93 µM

Question: What about the GI50 (NCI-H460 lung) of the same compound?
Answer: 1.27 µM

Question: And the TGI (NCI-H460 lung)?
Answer: 2.96 µM

Question: What about the GI50 (SF-539 CNS) of the same compound?
Answer: 1.19 µM

Question: And the TGI (SF-539 CNS)?
Answer: 2.49 µM

Question: And the GI50 (BT-549 breast)?
Answer: 0.76 µM

Question: What about the TGI (BT-549 breast) of the same compound?
Answer: 2.17 µM

Question: What about the GI50 (SW-620 colon) of the same compound?
Answer: 0.709 µM

Question: What about the TGI (SW-620 colon) of the same compound?
Answer: 2.04 µM

Question: What about the GI50 (EKVX NSCLC) of the same compound?
Answer: 1.46 µM

Question: What about the TGI (EKVX NSCLC) of the same compound?
Answer: 2.84 µM

Question: What about the GI50 (OVCAR-8 ovarian) of the same compound?
Answer: 1.26 µM

Question: What about the TGI (OVCAR-8 ovarian) of the same compound?
Answer: 2.54 µM

Question: And the GI50 (SNB-75 CNS)?
Answer: 1.33 µM

Question: What about the TGI (SNB-75 CNS) of the same compound?
Answer: 2.7 µM

Question: And the GI50 (HCT-15 colon)?
Answer: 0.399 µM

Question: What about the TGI (HCT-15 colon) of the same compound?
Answer: 1.66 µM

Question: What about the GI50 (UO-31 renal) of the same compound?
Answer: 0.511 µM

Question: What about the TGI (UO-31 renal) of the same compound?
Answer: 1.93 µM

Question: What about the GI50 (CCRF-CEM leukemia) of the same compound?
Answer: 0.164 µM

Question: And the TGI (CCRF-CEM leukemia)?
Answer: > 100 µM

Question: What about the GI50 (HS 578T breast) of the same compound?
Answer: 1.68 µM

Question: What about the TGI (HS 578T breast) of the same compound?
Answer: 4.92 µM

Question: What about the GI50 (SN12C renal) of the same compound?
Answer: 1.13 µM

Question: What about the TGI (SN12C renal) of the same compound?
Answer: 2.36 µM

Question: What about the GI50 (SK-MEL-2 melanoma) of the same compound?
Answer: 0.859 µM

Question: What about the TGI (SK-MEL-2 melanoma) of the same compound?
Answer: 2.14 µM

Question: What about the GI50 (SF-295 CNS) of the same compound?
Answer: 1.62 µM

Question: What about the TGI (SF-295 CNS) of the same compound?
Answer: 3 µM

Question: And the GI50 (HOP-92 NSCLC)?
Answer: 1.19 µM

Question: What about the TGI (HOP-92 NSCLC) of the same compound?
Answer: 2.64 µM

Question: And the GI50 (SNB-19 CNS)?
Answer: 1.25 µM

Question: What about the TGI (SNB-19 CNS) of the same compound?
Answer: 2.54 µM

Question: And the GI50 (SK-OV-3 ovarian)?
Answer: 1.74 µM

Question: And the TGI (SK-OV-3 ovarian)?
Answer: 3.17 µM

Question: And the GI50 (ACHN renal)?
Answer: 1.61 µM

Question: What about the TGI (ACHN renal) of the same compound?
Answer: 2.98 µM

Question: And the GI50 (IGROV1 ovarian)?
Answer: 0.534 µM

Question: What about the TGI (IGROV1 ovarian) of the same compound?
Answer: 1.95 µM

Question: What about the GI50 (COLO 205 colon) of the same compound?
Answer: 1.1 µM

Question: And the TGI (COLO 205 colon)?
Answer: 2.47 µM

Question: And the GI50 (M14 melanoma)?
Answer: 1.16 µM

Question: And the TGI (M14 melanoma)?
Answer: 2.49 µM

Question: What about the GI50 (UACC-257 melanoma) of the same compound?
Answer: 1.34 µM

Question: What about the TGI (UACC-257 melanoma) of the same compound?
Answer: 2.67 µM

Question: What about the GI50 (HCT-116 colon) of the same compound?
Answer: 0.78 µM

Question: And the TGI (HCT-116 colon)?
Answer: 2.14 µM

Question: What about the GI50 (OVCAR-5 ovarian) of the same compound?
Answer: 1.65 µM

Question: What about the TGI (OVCAR-5 ovarian) of the same compound?
Answer: 3.11 µM

Question: And the GI50 (HL-60(TB) leukemia)?
Answer: 0.319 µM

Question: What about the TGI (HL-60(TB) leukemia) of the same compound?
Answer: 1.28 µM

Question: What about the GI50 (PC-3 prostate) of the same compound?
Answer: 1.05 µM

Question: And the TGI (PC-3 prostate)?
Answer: 2.47 µM

Question: What about the GI50 (A498 renal) of the same compound?
Answer: 1.29 µM

Question: What about the TGI (A498 renal) of the same compound?
Answer: 2.57 µM

Question: What about the GI50 (SR leukemia) of the same compound?
Answer: 0.281 µM

Question: What about the TGI (SR leukemia) of the same compound?
Answer: > 100 µM

Question: And the GI50 (TK-10 renal)?
Answer: 1.47 µM

Question: And the TGI (TK-10 renal)?
Answer: 2.8 µM

Question: And the GI50 (HCC-2998 colon)?
Answer: 1.51 µM

Question: What about the TGI (HCC-2998 colon) of the same compound?
Answer: 2.97 µM

Question: What about the GI50 (HOP-62 NSCLC) of the same compound?
Answer: 1.71 µM

Question: What about the TGI (HOP-62 NSCLC) of the same compound?
Answer: 3.19 µM

Question: And the GI50 (MDA-MB-231 breast)?
Answer: 1.36 µM

Question: What about the TGI (MDA-MB-231 breast) of the same compound?
Answer: 2.7 µM

Question: And the GI50 (MOLT-4 leukemia)?
Answer: 0.382 µM

Question: And the TGI (MOLT-4 leukemia)?
Answer: > 100 µM

Question: What about the GI50 (CAKI-1 renal) of the same compound?
Answer: 1.04 µM

Question: What about the TGI (CAKI-1 renal) of the same compound?
Answer: 2.22 µM

Question: What about the GI50 (NCI-H522 lung) of the same compound?
Answer: 1.25 µM

Question: What about the TGI (NCI-H522 lung) of the same compound?
Answer: 2.53 µM

Question: And the GI50 (SK-MEL-28 melanoma)?
Answer: 0.982 µM

Question: What about the TGI (SK-MEL-28 melanoma) of the same compound?
Answer: 2.34 µM

Question: What about the GI50 (NCI-H23 lung) of the same compound?
Answer: 1.27 µM

Question: What about the TGI (NCI-H23 lung) of the same compound?
Answer: 2.85 µM

Question: What about the GI50 (K-562 leukemia) of the same compound?
Answer: 0.426 µM

Question: And the TGI (K-562 leukemia)?
Answer: > 100 µM

Question: And the GI50 (RXF 393 renal)?
Answer: 0.751 µM

Question: And the TGI (RXF 393 renal)?
Answer: 2.03 µM

Question: What about the GI50 (A549 NSCLC) of the same compound?
Answer: 1.53 µM

Question: What about the TGI (A549 NSCLC) of the same compound?
Answer: 3 µM

Question: And the GI50 (UACC-62 melanoma)?
Answer: 1.2 µM

Question: What about the TGI (UACC-62 melanoma) of the same compound?
Answer: 2.5 µM

Question: What about the GI50 (MDA-MB-435) of the same compound?
Answer: 1.22 µM

Question: What about the TGI (MDA-MB-435) of the same compound?
Answer: 2.54 µM

Question: What about the GI50 (MCF7 breast) of the same compound?
Answer: 0.477 µM

Question: What about the TGI (MCF7 breast) of the same compound?
Answer: 2.04 µM

Question: And the GI50 (DU-145 prostate)?
Answer: 1.58 µM

Question: What about the TGI (DU-145 prostate) of the same compound?
Answer: 2.92 µM

Question: What about the GI50 (U251 CNS) of the same compound?
Answer: 0.738 µM

Question: And the TGI (U251 CNS)?
Answer: 2.08 µM

Question: What about the GI50 (RPMI-8226 leukemia) of the same compound?
Answer: 0.754 µM

Question: And the GI50 (SK-MEL-5 melanoma)?
Answer: 1.57 µM

Question: What about the TGI (SK-MEL-5 melanoma) of the same compound?
Answer: 2.95 µM

Question: What about the GI50 (KM12 colon) of the same compound?
Answer: 1.48 µM

Question: What about the TGI (KM12 colon) of the same compound?
Answer: 2.9 µM

Question: And the GI50 (HT29 colon)?
Answer: 1.6 µM

Question: And the TGI (HT29 colon)?
Answer: 3.21 µM
